How the values were obtained:
[1] = In-vitro oxygen radical assay with luminol and hydrogen peroxide (Example 2); type: biochemical; conditions: luminol pre-incubated with compound at 100 μg/ml
Experimental: The ability of a compound to scavenge free radicals implicates it as an antioxidizing agent that could help to reduce the natural oxidizing effects of aging. In a first test of whether DHEA or it derivatives have the ability to capture free radicals, an in-vitro oxygen radical assay was devised, The assay was run in quadruplicate to perfect the concentrations of controls as well as test the diluents (phosphate buffered saline (PBS) and DMSO) in which the DHEA and its derivatives were dissolved. The positive controls used were homocysteine and ascorbic acid (Vitamin C).

collagen content of skin = assay: Collagen content of neonatal rat skin by hydroxyproline evaluation (Example 3); type: in vivo, neonatal male Sprague-Dawley rats; conditions: 0.5% in carrier, twice daily, 30 days, five animals per group
Experimental: (§1) Chemical alterations in the skins of neonatal male Sprague-Dawley rats.
(§2) Collagen and elastin contents were measured on dry, defatted, hair-free skin samples. Collagen contents were assessed through hydroxyproline evaluations in hydrolyzed, 0.1N hot sodium hydroxide extracts. Elastin contents were measured by HPLC evaluation of the contents of thermolysin-produced peptides in digests of the hot sodium hydroxide residue. Controls were both shaven and unshaven, the shaven receiving only the carrier twice daily.
(§3) Elastin contents were increased by all the compounds (28% for DHEA, 30% for the 7 hydroxy and the 7 hydroxy-isoandrosterone). In these studies statistical analysis of variance was significant at an alpha level of 0.01. Similar to the histologic observations, these chemistries are reversible. Collagen and elastin contents returned to near normal levels after cessation of treatment for 30 days.

elastin content of skin = assay: Elastin content of neonatal rat skin by HPLC of thermolysin-produced peptides (Example 3); type: in vivo, neonatal male Sprague-Dawley rats; conditions: 0.5% in carrier, twice daily, 30 days, five animals per group
Experimental: as §1, §2, §3

thymocytes = assay: Glucocorticoid-induced apoptosis of thymocytes, flow cytometry with propidium iodide (Example 4); type: cell-based, mouse C57BL/6; conditions: 6 hours
Experimental: Effects of 3β,7α-dihydroxy-5-androstene-17-one (7α-hydroxy-DHEA) and of 3β,7α-dihydroxy-5α-androstane-17-one (7α-hydroxy-ISOA) on the cellular apoptosis induced by glucocorticoids.
The thymus of a mouse C57BL/6 age four weeks was removed. Culture of the thymocytes was carried out for 6 hours in a RPMI 1640 medium and in the presence or in the absence of the steroid tested. The apoptosis (fragmentation of the DNA) was measured by flow cytometry after marking with propidium iodide. The apoptotic phenomenon was controlled by electrophoresis of the DNA developed by ethidium bromide according to the traditional technique (observation of ladders of 200 pairs of bases).

[2] = system: elastin content of the skin; assay: Elastin content of rat skin after 30 days of topical treatment (FIG. 1); type: in vivo, Sprague-Dawley male rat; conditions: topical 5% concentration of DHEA, similar time period, three animals
Description: In FIG. 1, S CONTR represents the Shaven Control and US CONTR represents the Unshaven Control. FIG. 1 illustrates that the present invention has the advantageous qualities of enhancing the softness or elasticity of the skin by increasing the endogenous production of elastin in the skin. The present invention is also directed to a method of improving the texture of skin, specifically the physical appearance of the skin by improving the endogenous production of elastin. The method of the present invention employs any of a number of known administrative routes such as oral, IV, subcutaneous, transcutaneous, and topical administration. […]
It is preferable that the topical administration of the composition of the present invention occur repeatedly over a predetermined time period, preferably in the range of about one week to about one month. […] Testing illustrated that the endogenous elastin (measured by microgram (μg) Elastin per milligram (mg) Skin Fat Free Dry weight) of each of the rats to which the administration was applied doubled over that of a control sample and to a sample which was treated with a 5% concentration of DHEA over a similar time period. […] The data of FIG. 1 are significant at an alpha level less than 0.001 as determined by analysis of variance. […]

rat skin dermal layer = assay: Histologic examination of H&E stained rat skin cross sections (Example 1); type: in vivo
Description: 7 hydroxy DHEA and 7 hydroxy isoandrosterone treated rat skin.
Upon histologic examination of hematoxylin and eosin (H&E) stained rat skin cross sections, a striking physical change was noted. […] This finding was consistent and most pronounced when the parent compound (DHEA) was used on young, healthy rats. However, it also occurred in replicate experiments when the derivatives were used. […] The latter two findings support the toxicologic studies, done concomitantly, which found no significant toxicity when the compounds were used at 0.5% concentration in a suitable carrier applied twice daily (12 hour intervals) for 30 days. […] A subset of experimental animals within each treatment group were left untreated for 30 days. Upon examination, treated skin sections were indistinguishable from the untreated.

human keratinocytes [3] = assay: Viability of human keratinocytes in culture, MTT test (Example 5); type: cell-based
Experimental: Effects of 3β,7α-dihydroxy-5-androstene-17-one (7α-hydroxy-DHEA) on the viability of human keratinocytes in culture.
Human keratinocytes were obtained from surgical items and were cultivated in a monolayer until preconfluence. The 7α-hydroxy-DHEA was administered to these cultures at various concentrations in ethanolic solution (10%), each concentration being tested eight times. Controls were carried out with ethanol alone (10%). After twenty-four hours, the viability of the keratinocytes was measured by testing with MTT (3-(4,5-dimethylthiazol-2-yl)-2,5 diphenyl tetrazolium bromide) where the mitochondrial dehydrogenase succinate converts the MTT into blue crystals of formazan soluble in DMSO (Mosmann, J. Immunol. Methods 65: 55-63, 1983). The cellular viability is calculated according to the formula:
Any value greater than 100 indicates a product that encourages cellular viability.

human fibroblasts = assay: Proliferation of human fibroblasts in culture, cell count (Example 6); type: cell-based; conditions: 72 hours of contact, control 190,667 ± 6,766
Experimental: Effects of 3β,7α-dihydroxy-5-androstene-17-one (7α-hydroxy-DHEA) on the proliferation of human fibroblasts in culture.
The cultures of human fibroblasts (person) were seeded on twenty-four site plates at the rate of 50,000 cells per site in a standard culture medium (DMEM, gentamycine, amphotericine B, penicillin, L-glutamine, 10% SVF). The tests were carried out on four series of three sites. After twenty-four hours, the fibroblasts adhered to the support and three series were treated with 7α-hydroxy-DHEA at concentrations of 10^−6 M, 6. 10^−6 M and 10^−7 M. The fourth series only contained the vector (ethanol). The media were renewed daily, and at ninety-six hours (seventy-two hours of test contact with the 7α-hydroxy-DHEA), the fibroblasts were counted on a Malassez cell in the presence of blue trypan.

human keratinocytes [4] = assay: Anti-radical effect on UVA-irradiated human keratinocyte suspension, lipid peroxide chemiluminescence (Example 7); type: cell-based; conditions: UVA irradiated 30 minutes, 10^−6 M
Description: The anti-radical effects of 3β,7α-dihydroxy-5-androstene-17-one (7α-hydroxy-DHEA) on a suspension of human keratinocytes.
Keratinocytes from a healthy donor were cultivated to the subconfluent stage in a specific medium (KGM) for the proliferation of keratinocytes. The suspensions obtained were split up, in triplicate, into four series, of which three were irradiated for thirty minutes with a lamp […] UVA so as to speed up the production of free radicals. Among the three irradiated series, one contained Vitamins C and E (0.7%) and was used as a protection reference, one contained 7α-hydroxy-DHEA at 10^−6 M and the last served as a control. Table D below reports on the measurement of the anti-radical effects.
The free radicals produced generate lipoid peroxides which are measured by chemiluminescence (Belghmi et al. J Biolum. Chemilum. 2: 113-119, 1982). The effectiveness of the 7α-hydroxy-DHEA was calculated on the basis of non-irradiated controls and the protection reference.

[5] = steroid 10^−5 M with Dexamethasone 10^−5 M
[6] = steroid 10^−6 M with Dexamethasone 10^−6 M

SMILES: C[C@]12CC[C@H](O)C[C@@H]1C[C@@H](O)[C@@H]1[C@@H]2CC[C@]2(C)C(=O)CC[C@@H]12 [7α-hydroxy-ISOA, 3β,7α-dihydroxy-5α-androstane-17-one]
- reduction of light emission from luminol [1]: 15%
- collagen increase (collagen content of skin): 24%
- elastin content increase (elastin content of skin): 30%
- Apoptotic cells (thymocytes; [5]): 46.3%
- Apoptotic cells (thymocytes; [6]): 72.0%

SMILES: C[C@]12CC[C@H](O)CC1=CC[C@@H]1[C@@H]2CC[C@]2(C)C(=O)CC[C@@H]12 [DHEA, 3β-hydroxy-5-androstene-17-one, reference compound]
- endogenous elastin (mean) [2]: 1.753 microgram (μg) Elastin per milligram (mg) Skin Fat Free Dry weight
- thickness of the dermal layer of skin (rat skin dermal layer; 0.5% in carrier, twice daily, 30 days, vs shaven and unshaven untreated controls): thickened to nearly twice that of the untreated controls
- reversibility of dermal thickening (rat skin dermal layer; animals left untreated for 30 days after treatment): completely reversible
- reduction of light emission from luminol [1]: 20%
- collagen decrease (collagen content of skin): 16%
- elastin content increase (elastin content of skin): 28%
- Apoptotic cells (thymocytes; [5]): 51.4%
- Apoptotic cells (thymocytes; [6]): 39.0%
- Viability of the keratinocytes (human keratinocytes [3]; other comparative tests, concentration not given): 100±5

SMILES: C[C@]12CC[C@H](O)CC1=C[C@@H](O)[C@@H]1[C@@H]2CC[C@]2(C)C(=O)CC[C@@H]12 [7α-hydroxy-DHEA, 3β,7α-dihydroxy-5-androstene-17-one]
- reduction of light emission from luminol [1]: did not cause any reduction
- collagen increase (collagen content of skin): 24%
- elastin content increase (elastin content of skin): 30%
- Apoptotic cells (thymocytes; [5]): 48.6%
- Apoptotic cells (thymocytes; [6]): 58.8%
- Viability of the keratinocytes (human keratinocytes [3]; 5 · 10^−5 M, 24 hours, control = 100): 111 ± 7%
- Viability of the keratinocytes (human keratinocytes [3]; 5 · 10^−6 M, 24 hours, control = 100): 147 ± 9%
- Viability of the keratinocytes (human keratinocytes [3]; 5 · 10^−7 M, 24 hours, control = 100): 139 ± 3%
- cytotoxicity (human keratinocytes [3]; 10^−4 M to 10^−8 M): no cytotoxicity was observed
- Viability of the keratinocytes (human keratinocytes [3]; 10^−4 M, 24 hours, control = 100): 124 ± 10%
- Viability of the keratinocytes (human keratinocytes [3]; 10^−5 M, 24 hours, control = 100): 119 ± 7%
- Viability of the keratinocytes (human keratinocytes [3]; 10^−6 M, 24 hours, control = 100): 154 ± 6%
- Viability of the keratinocytes (human keratinocytes [3]; 10^−7 M, 24 hours, control = 100): 147 ± 5%
- Viability of the keratinocytes (human keratinocytes [3]; 10^−8 M, 24 hours, control = 100): 127 ± 3%
- effect on viability of human keratinocytes (human keratinocytes [3]; concentrations between 10^−4 M and 10^−8 M): significantly increases the viability
- Number of Fibroblasts (human fibroblasts; 5 · 10^−6 M): 258,667 ± 3,351
- Number of Fibroblasts (human fibroblasts; 10^−6 M): 268,000 ± 27,154
- Number of Fibroblasts (human fibroblasts; 10^−7 M): 230,667 ± 8,511
- Effectiveness (human keratinocytes [4]; calculated from non-irradiated controls and protection reference): 90%
- Chemiluminescence (human keratinocytes [4]; irradiated controls 427,750 ± 137,322): 44,164 ± 13,303

From patent publication US6777389B1, “Cosmetic or dermatological use of 7-hydroxylated steroids in combination with elastin derived peptides” (Connective Tissue Imagineering LLC, priority 1998, dated 2004)
